Results published in patent US10435399B2, “HDAC6 inhibitory heterocyclic compound” (TAKEDA PHARMACEUTICAL COMPANY LIMITED, priority 2017, dated 2019).

The compounds below were run against T1, HDAC6 enzyme (Homo sapiens, UniProt Q9UBN7) (assay: HDAC6 enzyme inhibitory activity (HDAC-Glo I/II Assay kit)). Details: 10 μM; wells without enzyme = 100% inhibition; read-out: HDAC6 inhibitory rate (%) (10 μM).
T1 construct: transducing full length HDAC6 gene into Sf-9 insect cells; GST; purchased SignalChem; host or cells: Sf-9 insect cells
T1 sequence (Q9UBN7 1-1215): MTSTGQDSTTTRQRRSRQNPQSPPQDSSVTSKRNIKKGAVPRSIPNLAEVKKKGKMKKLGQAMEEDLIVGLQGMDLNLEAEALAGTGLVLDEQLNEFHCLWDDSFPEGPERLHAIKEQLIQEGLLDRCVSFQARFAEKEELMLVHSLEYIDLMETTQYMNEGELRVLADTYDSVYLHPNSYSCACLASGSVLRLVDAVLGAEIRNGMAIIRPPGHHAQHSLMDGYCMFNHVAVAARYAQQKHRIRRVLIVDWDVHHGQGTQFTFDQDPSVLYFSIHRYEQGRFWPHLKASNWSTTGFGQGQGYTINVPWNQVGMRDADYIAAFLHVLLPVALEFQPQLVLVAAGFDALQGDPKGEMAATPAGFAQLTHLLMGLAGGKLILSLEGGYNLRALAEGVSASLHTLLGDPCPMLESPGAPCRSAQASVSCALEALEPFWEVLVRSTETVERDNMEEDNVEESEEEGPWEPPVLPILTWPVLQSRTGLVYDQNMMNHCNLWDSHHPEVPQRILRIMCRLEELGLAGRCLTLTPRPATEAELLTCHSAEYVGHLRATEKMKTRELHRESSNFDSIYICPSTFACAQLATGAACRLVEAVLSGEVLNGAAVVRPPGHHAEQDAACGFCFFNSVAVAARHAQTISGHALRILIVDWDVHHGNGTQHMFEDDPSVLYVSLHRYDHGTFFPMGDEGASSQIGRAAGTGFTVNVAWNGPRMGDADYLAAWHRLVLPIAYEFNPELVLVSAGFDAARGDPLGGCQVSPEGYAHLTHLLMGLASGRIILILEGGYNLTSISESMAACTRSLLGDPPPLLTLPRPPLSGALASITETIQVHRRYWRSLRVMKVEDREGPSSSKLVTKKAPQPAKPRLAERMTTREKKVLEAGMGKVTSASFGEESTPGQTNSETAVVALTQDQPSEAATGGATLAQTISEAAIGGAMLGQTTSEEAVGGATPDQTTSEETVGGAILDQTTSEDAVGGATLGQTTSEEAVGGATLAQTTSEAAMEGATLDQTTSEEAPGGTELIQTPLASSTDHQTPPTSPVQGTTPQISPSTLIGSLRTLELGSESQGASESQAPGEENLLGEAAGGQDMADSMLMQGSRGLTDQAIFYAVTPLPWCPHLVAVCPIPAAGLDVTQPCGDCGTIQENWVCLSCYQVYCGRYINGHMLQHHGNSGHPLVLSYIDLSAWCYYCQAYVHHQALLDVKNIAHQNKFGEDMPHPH
Assay type: biochemical
Procedure, shortened: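 Full-length human HDAC6 (GST-purified, Sf-9 expressed) preincubated with compound 60 min at room temperature in Tris-HCl pH 7.5 buffer with MgCl2, KCl, NaCl, glutathione, Tween-20. HDAC-Glo I/II substrate-developer then added, 20 min room temperature, luminescence read. Inhibition relative to no-enzyme wells as 100%.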

Inhibition at 10 µM, 100%:
O=C(CCC(F)F)N[C@@H]1CCCC[C@H]1N1Cc2ccc(-c3nnc(C(F)F)o3)cc2C1=O [Example 64, N-((1R,2R)-2-(6-(5-(difluoromethyl)-1,3,4-oxadiazol-2-yl)-1-oxo-1,3-dihydro-2H-isoindol-2-yl)cyclohexyl)-4,4-difluorobutanamide]
O=C(CCC(F)(F)F)N[C@@H]1CCCC[C@H]1N1Cc2ccc(-c3nnc(C(F)F)o3)cc2C1=O [Example 65, N-((1R,2R)-2-(6-(5-(difluoromethyl)-1,3,4-oxadiazol-2-yl)-1-oxo-1,3-dihydro-2H-isoindol-2-yl)cyclohexyl)-4,4,4-trifluorobutanamide]
CCC(F)(F)C(=O)N[C@@H]1CCCC[C@H]1N1Cc2ccc(-c3nnc(C(F)F)o3)cc2C1=O [Example 67, N-((1R,2R)-2-(6-(5-(difluoromethyl)-1,3,4-oxadiazol-2-yl)-1-oxo-1,3-dihydro-2H-isoindol-2-yl)cyclohexyl)-2,2-difluorobutanamide]
O=C(N[C@@H]1CCCC[C@H]1N1Cc2ccc(-c3nnc(C(F)F)o3)cc2C1=O)C1CC1F (stereo partly drawn) [Example 70, N-((1R,2R)-2-(6-(5-(difluoromethyl)-1,3,4-oxadiazol-2-yl)-1-oxo-1,3-dihydro-2H-isoindol-2-yl)cyclohexyl)-2-fluorocyclopropanecarboxamide]

Inhibition at 10 µM, 101%:
CCCC(=O)N[C@@H]1CCCC[C@H]1N1Cc2ccc(-c3nnc(C(F)F)o3)cc2C1=O [Example 50, N-((1R,2R)-2-(6-(5-(difluoromethyl)-1,3,4-oxadiazol-2-yl)-1-oxo-1,3-dihydro-2H-isoindol-2-yl)cyclohexyl)butanamide]
O=C1c2cc(-c3nnc(C(F)F)o3)ccc2CN1[C@@H]1CCCC[C@H]1n1cc2ccccc2n1 [Example 55, 6-(5-(difluoromethyl)-1,3,4-oxadiazol-2-yl)-2-((1R,2R)-2-(2H-indazol-2-yl)cyclohexyl)isoindolin-1-one]
CC(F)C(=O)N[C@@H]1CCCC[C@H]1N1Cc2ccc(-c3nnc(C(F)F)o3)cc2C1=O (stereo partly drawn) [Example 66, N-((1R,2R)-2-(6-(5-(difluoromethyl)-1,3,4-oxadiazol-2-yl)-1-oxo-1,3-dihydro-2H-isoindol-2-yl)cyclohexyl)-2-fluoropropanamide]
COC1(C(=O)N[C@@H]2CCCC[C@H]2N2Cc3ccc(-c4nnc(C(F)F)o4)cc3C2=O)CC1 [Example 68, N-((1R,2R)-2-(6-(5-(difluoromethyl)-1,3,4-oxadiazol-2-yl)-1-oxo-1,3-dihydro-2H-isoindol-2-yl)cyclohexyl)-1-methoxycyclopropanecarboxamide]

Inhibition at 10 µM, 96%:
CCOC(=O)N[C@@H]1CCCC[C@H]1N1Cc2ccc(-c3nnc(C(F)F)o3)cc2C1=O [Example 52, ethyl ((1R,2R)-2-(6-(5-(difluoromethyl)-1,3,4-oxadiazol-2-yl)-1-oxo-1,3-dihydro-2H-isoindol-2-yl)cyclohexyl)carbamate]
O=C1c2cc(-c3nnc(C(F)F)o3)ccc2CN1Cc1ccccn1 [Example 60, 6-(5-(difluoromethyl)-1,3,4-oxadiazol-2-yl)-2-(pyridin-2-ylmethyl)isoindolin-1-one]

Inhibition at 10 µM, 92%:
O=C1c2cc(-c3nnc(C(F)F)o3)ccc2CN1CC1CC1 [Example 56, 2-(cyclopropylmethyl)-6-(5-(difluoromethyl)-1,3,4-oxadiazol-2-yl)isoindolin-1-one]

Inhibition at 10 µM, 94%:
O=C1c2cc(-c3nnc(C(F)F)o3)ccc2CN1Cc1ccc(C(F)(F)F)cc1 [Example 59, 6-(5-(difluoromethyl)-1,3,4-oxadiazol-2-yl)-2-(4-(trifluoromethyl)benzyl)isoindolin-1-one]

Inhibition at 10 µM, 97%:
CC(C)OC(=O)N1CCOC[C@@H]1CN1Cc2ccc(-c3nnc(C(F)F)o3)cc2C1=O [Example 46, isopropyl (3S)-3-((6-(5-(difluoromethyl)-1,3,4-oxadiazol-2-yl)-1-oxo-1,3-dihydro-2H-isoindol-2-yl)methyl)morpholine-4-carboxylate]
O=C(N[C@@H]1CCCC[C@H]1N1Cc2ccc(-c3nnc(C(F)F)o3)cc2C1=O)C1CC1C(F)F (stereo partly drawn) [Example 71, 2-(difluoromethyl)-N-((1R,2R)-2-(6-(5-(difluoromethyl)-1,3,4-oxadiazol-2-yl)-1-oxo-1,3-dihydro-2H-isoindol-2-yl)cyclohexyl)cyclopropanecarboxamide (optical isomer)]

Inhibition at 10 µM, 99%:
O=C1c2cc(-c3nnc(C(F)F)o3)ccc2CN1C[C@H]1COCCN1C(=O)C1CC1 [Example 45, 2-(((3S)-4-(cyclopropylcarbonyl)morpholin-3-yl)methyl)-6-(5-(difluoromethyl)-1,3,4-oxadiazol-2-yl)isoindolin-1-one]
O=C1c2cc(-c3nnc(C(F)F)o3)ccc2CN1C[C@H]1COCCN1C(=O)C1CCCC1 [Example 47]
Cc1ccc(S(=O)(=O)N2CCOC[C@@H]2CN2Cc3ccc(-c4nnc(C(F)F)o4)cc3C2=O)cc1 [Example 49, 6-(5-(difluoromethyl)-1,3,4-oxadiazol-2-yl)-2-(((3S)-4-((4-methylphenyl)sulfonyl)morpholin-3-yl)methyl)isoindolin-1-one]
CCCCCC(=O)N[C@@H]1CCCC[C@H]1N1Cc2ccc(-c3nnc(C(F)F)o3)cc2C1=O [Example 51, N-((1R,2R)-2-(6-(5-(difluoromethyl)-1,3,4-oxadiazol-2-yl)-1-oxo-1,3-dihydro-2H-isoindol-2-yl)cyclohexyl)hexanamide]
Cc1cc(C)n([C@@H]2CCCC[C@H]2N2Cc3ccc(-c4nnc(C(F)F)o4)cc3C2=O)n1 [Example 61, 6-(5-(difluoromethyl)-1,3,4-oxadiazol-2-yl)-2-((1R,2R)-2-(3,5-dimethyl-1H-pyrazol-1-yl)cyclohexyl)isoindolin-1-one]
CC(C)(C)OC(=O)N[C@@H]1CCCC[C@H]1N1Cc2ncc(-c3nnc(C(F)F)o3)cc2C1=O [Example 62, tert-butyl ((1R,2R)-2-(3-(5-(difluoromethyl)-1,3,4-oxadiazol-2-yl)-5-oxo-5,7-dihydro-6H-pyrrolo[3,4-b]pyridin-6-yl)cyclohexyl)carbamate]
O=C(CC1CC1)N[C@@H]1CCCC[C@H]1N1Cc2ccc(-c3nnc(C(F)F)o3)cc2C1=O [Example 63, 2-cyclopropyl-N-((1R,2R)-2-(6-(5-(difluoromethyl)-1,3,4-oxadiazol-2-yl)-1-oxo-1,3-dihydro-2H-isoindol-2-yl)cyclohexyl)acetamide]

Inhibition at 10 µM, 98%:
COC(=O)N1CCOC[C@@H]1CN1Cc2ccc(-c3nnc(C(F)F)o3)cc2C1=O [Example 48, methyl (3S)-3-((6-(5-(difluoromethyl)-1,3,4-oxadiazol-2-yl)-1-oxo-1,3-dihydro-2H-isoindol-2-yl)methyl)morpholine-4-carboxylate]
O=C1c2cc(-c3nnc(C(F)F)o3)ccc2CN1[C@@H]1CCCC[C@H]1N1CCC2(CC2)C1=O [Example 53, 6-(5-(difluoromethyl)-1,3,4-oxadiazol-2-yl)-2-((1R,2R)-2-(4-oxo-5-azaspiro[2.4]hept-5-yl)cyclohexyl)isoindolin-1-one]
CCc1cc(CC)n([C@@H]2CCCC[C@H]2N2Cc3ccc(-c4nnc(C(F)F)o4)cc3C2=O)n1 [Example 54, 2-((1R,2R)-2-(3,5-diethyl-1H-pyrazol-1-yl)cyclohexyl)-6-(5-(difluoromethyl)-1,3,4-oxadiazol-2-yl)isoindolin-1-one]
O=C1c2cc(-c3nnc(C(F)F)o3)ccc2CN1Cc1ccccc1 [Example 58, 2-benzyl-6-(5-(difluoromethyl)-1,3,4-oxadiazol-2-yl)isoindolin-1-one]
